Test results published in US20050019426A1, “Use of an aqueous or hydroalcoholic extract from bauhinia for the preparation of a composition” (priority 2003, published 2005).
Values joined by “and” are separate entries in the source; they are usually repeats but may differ in a detail not shown here. Equal entries are not always repeated.

System: non-enzymatic incorporation of glucose into proteins (glycation) in human dermal fibroblasts (NDHF Pool PF2)
Assay: Non-enzymatic incorporation of glucose into proteins (glycation) in fibroblasts (Example 5)
Format: cell-based
Conditions: 1 mg/ml, 15 days
Method: Material: • human dermal fibroblasts (NDHF Pool PF2) • culture medium: DMEM, 2 mM glutamine, 50 Ul/ml of penicillin, 50 μg/ml of streptomycin, 10% foetal calf serum (Life Technologies) • dry extract of Bauhinia forficata according to Example 4 (aqueous extraction), dissolved in sterile PBS • final concentrations tested: 0.3 mg/ml, 0.1 mg/ml, 0.03 mg/ml • reference: aminoguanidine 1 mg/ml
Human dermal fibroblasts are cultivated to confluence in cell culture medium (see above) in 25 cm^2 plates at 37° C. and 5% CO2. Collagen synthesis is stimulated by cultivation of the cells in the presence of vitamin C (final concentration: 20 μg/ml) for 96 hours. The cells are washed with PBS and lysed by serial freezing/thawing. The cells are treated with aqueous extract of Bauhinia forficata or aminoguanidine (and control: PBS) and labelled with 20 μCi/ml D-[5-^3H]-glucose (19 Ci/mmol), 703 Gbq/mmol) in the presence of 0.1 mg/ml of glucose. The treatment and labelling are carried out without interruption for 15 days at 37° C. and 5% CO2. At the end of the incubation, proteins of the extracellular matrix (principally collagen) are extracted by buffer (TRIS 50 mM, 4M guanidine, 5 mM EDTA, pH 8.0, 30 min). The total protein is precipitated by 20% (v/v) trichloroacetic acid, 0.66 mg/ml of albumin. The precipitates are recovered by filtration from a Skatron collector and washed copiously, firstly in 3% trichloroacetic acid, then with 70% ethanol. The glucose covalently bonded to the fibres of the extracellular matrix is finally measured by scintillation.

`N=C(N)NN` [Aminoguanidine, aminoguanidine] was tested, and the “reduction of glucose incorporation” value was 85%, the Mean cpm (n=3) was 3701 cpm and the “cpm (glucose incorporated into proteins)” value (single replicates) was 2859 cpm and 3434 cpm and 4809 cpm. The activity at 1000 µg/mL (Homo sapiens, Fibroblast, 360 h, read-out: % of control (glucose incorporation)) was 15%.
